The text below walks through data of ChEMBL document CHEMBL6096652, “Design, synthesis and anti-tumor evaluation of novel pyrimidine and quinazoline analogues” (Eur J Med Chem, 2025).

Bounds are passed on as bounds.

Assay [1] deals with A549. Nature of the assay: Antiproliferative activity against human A549 cells incubated for 48 hrs by MTT assay. It counts as functional, cell-based. The conditions noted are these: A549, 48 h. For orientation: Tetrazolium assays rely on reduction of a dye to a coloured formazan, in cell work by metabolically active cells.
Assay [2] has as its system HepG2. Nature of the assay: Antiproliferative activity against human HepG2 cells incubated for 48 hrs by MTT assay. The conditions noted are these: HepG2, 48 h. It counts as functional, cell-based.
For assay [3], the system named is MCF7. Nature of the assay: Antiproliferative activity against human MCF7 cells incubated for 48 hrs by MTT assay. The conditions noted are these: MCF7, 48 h. In kind it is functional, cell-based.
Assay [4] deals with B16-F10. The assay is described as follows: Antiproliferative activity against mouse B16-F10 cells incubated for 48 hrs by MTT assay. In kind it is functional, cell-based. The conditions noted are these: B16-F10, 48 h.
In assay [5] the test system is B16-F10. Nature of the assay: Antitumor activity against mouse B16-F10 cells implanted in C57BL/6 mouse at 10 mg/kg measured after 10 days relative to control. It counts as functional. The conditions noted are these: B16-F10, 240 h, time 10 day, read-out: TGI.
For assay [6], the system named is B16-F10. The assay is described as follows: Inhibition of cell migration in mouse B16-F10 cells assessed as recovery of scratch area at 50 nM incubated for 24 hrs by wound healing assay (reference value: 72.97 %). It counts as functional. More on the design: scale not given: the % may be the effect or the level left.

The term IC50 denotes the midpoint of a concentration-inhibition curve. For the compound `COc1cc(Nc2nc(-c3ccc4c(cnn4C)c3)nc3ccccc23)cc(OC)c1OC`, the IC50 in assay [1] turned out to be 6.47 µM; in assay [2], 3.14 µM; in assay [3] it was 3.33 µM; in assay [4], 1.78 µM.

For `COc1cc(NC(=O)c2ccnc(-c3ccc(C)cc3)n2)cc(OC)c1OC`, the IC50 is 6.08 µM in assay [1], over 50 µM in assay [2], over 50 µM in assay [3] and over 50 µM in assay [4].

With `COc1cc(Nc2ccnc(-c3ccc4c(ccn4C)c3)n2)cc(OC)c1OC`, the IC50 in assay [1] was determined as 2.31 µM; in assay [2], 4.9 µM; in assay [3], 5.31 µM; in assay [4], 1.82 µM.

On to `COc1cc(Nc2ccnc(-c3ccc4c(cnn4C)c3)n2)cc(OC)c1OC`, for which the IC50 in assay [1] is 0.598 µM; in assay [2], 1.46 µM; in assay [3], 1.13 µM; in assay [4], 1.85 µM.

Turning to `COc1cc2c(c(OC)c1OC)-c1ccc(OC)c(=O)cc1[C@@H](NC(C)=O)CC2` [COLCHICINE], the IC50 was 0.507 µM in assay [1], 0.038 µM in assay [2], 0.031 µM in assay [3] and 0.079 µM in assay [4]. For the same compound, the inhibition in vivo at 10 mg/kg in assay [5] amounted to 72.8%. In assay [6], the Activity is listed as 33.68%.

Turning to `COc1cc(Nc2ccnc(-c3ccccc3)n2)cc(OC)c1OC`, the IC50 in assay [1] was 4.08 µM; in assay [2], 9.2 µM; in assay [3] it was over 50 µM; in assay [4], 7.2 µM.

As to `COc1ccc(-c2nccc(Nc3cc(OC)c(OC)c(OC)c3)n2)cn1`, the IC50 is 3.09 µM in assay [1], over 50 µM in assay [2], over 50 µM in assay [3] and over 50 µM in assay [4].

For `COc1cc(Nc2ccnc(-c3cc(OC)c(OC)c(OC)c3)n2)cc(OC)c1OC`, the IC50 in assay [1], in assay [2], in assay [3] and in assay [4] was over 50 µM throughout.

Take `COc1cc(Nc2ccnc(-c3ccc(O)c(C)c3)n2)cc(OC)c1OC`: the IC50 in assay [1] stood at 1.08 µM; in assay [2], 6.53 µM; in assay [3] it was 6.74 µM; in assay [4], 4.97 µM.

As to `COc1ccc(-c2nc(Nc3cc(OC)c(OC)c(OC)c3)c3ccccc3n2)cc1`, the IC50 in assay [1], in assay [2], in assay [3] and in assay [4] was over 50 µM in each case.

As for `COc1cc(Nc2nc(-c3cccc4c3ccn4C)nc3ccccc23)cc(OC)c1OC`, the IC50 amounted to 1.35 µM in assay [1], 0.547 µM in assay [2], 0.877 µM in assay [3] and 0.784 µM in assay [4].

On to `COc1ccc(-c2nccc(C(=O)Nc3cc(OC)c(OC)c(OC)c3)n2)cc1OC`, for which the IC50 in assay [1], in assay [2], in assay [3] and in assay [4] was over 50 µM in each case.

On to `COc1cc(NC(=O)c2ccnc(-c3cccc4c3ccn4C)n2)cc(OC)c1OC`, for which the IC50 in assay [1] was determined as 3.09 µM; in assay [2] it was 1.1 µM; in assay [3], 1.89 µM; in assay [4] it was 2.28 µM.

With `COc1cc(NC(=O)c2ccnc(-c3ccc(C(F)(F)F)cc3)n2)cc(OC)c1OC`, the IC50 in assay [1], in assay [2], in assay [3] and in assay [4] was over 50 µM each time.

For the compound `COc1cc(Nc2nc(-c3cc(OC)c(OC)c(OC)c3)nc3ccccc23)cc(OC)c1OC`, the IC50 stood at 0.396 µM in assay [1], 0.781 µM in assay [2], 2.94 µM in assay [3] and 0.132 µM in assay [4].

As to `COc1cc(Nc2ccnc(-c3ccc(F)cc3)n2)cc(OC)c1OC`, the IC50 in assay [1] is 6.51 µM; in assay [2] it was 7.94 µM; in assay [3] it was over 50 µM; in assay [4] it was 8.25 µM.

On to `COc1cc(Nc2ccnc(-c3ccc(C#N)cc3)n2)cc(OC)c1OC`, for which the IC50 in assay [1] was 4.76 µM; in assay [2], 4.33 µM; in assay [3], over 50 µM; in assay [4], over 50 µM.

Take `COc1cc(Nc2nc(-c3ccccc3)nc3ccccc23)cc(OC)c1OC`: the IC50 in assay [1] stood at 3.96 µM; in assay [2], 0.807 µM; in assay [3], 4.89 µM; in assay [4] it was 0.884 µM.

`COc1ccc(-c2nc(Nc3cc(OC)c(OC)c(OC)c3)c3ccccc3n2)cc1OC`: the IC50 in assay [1] was 5.6 µM; in assay [2] it was over 50 µM; in assay [3], over 50 µM; in assay [4], 0.331 µM.

On to `COc1cc(NC(=O)c2ccnc(-c3ccccc3)n2)cc(OC)c1OC`, for which the IC50 in assay [1] was 5.38 µM; in assay [2] it was 2.32 µM; in assay [3], over 50 µM; in assay [4], over 50 µM.

In the case of `COc1cc(NC(=O)c2ccnc(-c3ccc4c(c3)OCCO4)n2)cc(OC)c1OC`, the IC50 in assay [1] is 3.11 µM; in assay [2], over 50 µM; in assay [3] it was over 50 µM; in assay [4], over 50 µM.

For the compound `COc1cc(Nc2nc(-c3ccc(C)cc3)nc3ccccc23)cc(OC)c1OC`, the IC50 in assay [1] is 1.83 µM; in assay [2], 2.44 µM; in assay [3], over 50 µM; in assay [4], over 50 µM.

With `COc1cc(Nc2ccnc(-c3ccc(C)cc3)n2)cc(OC)c1OC`, the IC50 in assay [1] was found to be 2.14 µM; in assay [2] it was 1.85 µM; in assay [3], 5.77 µM; in assay [4], 7.62 µM.

As to `COc1ccc(-c2nccc(Nc3cc(OC)c(OC)c(OC)c3)n2)cc1`, the IC50 in assay [1] came out at 2.22 µM; in assay [2], 1.22 µM; in assay [3], 7.27 µM; in assay [4] it was 2.69 µM.

`COc1cc(Nc2ccnc(-c3cccc4c3cnn4C)n2)cc(OC)c1OC`: the IC50 in assay [1] stood at 5.55 µM; in assay [2] it was 5.92 µM; in assay [3], 7.12 µM; in assay [4], 4.57 µM.

With `COc1cc(Nc2nc(-c3ccc(F)cc3)nc3ccccc23)cc(OC)c1OC`, the IC50 in assay [1], in assay [2], in assay [3] and in assay [4] was over 50 µM each time.
